In patent publication US8969395B2, “Triterpenoid derivatives useful as antiproliferative agents” (Universidade de Coimbra, priority 2009, dated 2015) one finds IC50 data, which are given here for twelve compounds.

Common to all, as to assay type: cell-based
Holding throughout (conditions): 72 h, mean ±SD

In experiment [1] the test system is HeLa (human cervical adenocarcinoma). The experiment is described as follows: Cytotoxic activity, MTT assay, HeLa. The method, then: (§1) The cytotoxic of compounds of formulas (I) and (II) 14-50 was assessed towards human cancer (HepG2, HeLa and Jurkat) cell lines (Table 3 below). Compounds presented on Table 4 were also tested against a non-tumoral liver cell line (Chang liver). The cell viability of HeLa, HepG2 and Chang liver cells was determined by the MTT assay. Briefly, exponentially growing cells were plated in 96-well plates at a density of 1×10^3, 8×10^3 and 5×10^3 cells/well respectively and incubated for 24 h before treatment. The grown medium was replaced with one contained the tested compounds dissolved in DMSO (final DMSO concentration <0.1%) at different concentrations, in triplicate wells, and cells were incubated for 72 h. After incubation with the compounds, the medium was removed and MTT solution (0.5 mg/ml, 100 μl) was added to each well and the plates were incubated again for 1 h. DMSO (100 μl) was then added to dissolve the formazan crystals and the plates were immediately read at 550 nm on an ELISA plate reader (Tecan Sunrise MR20-301, TECAN, Austria). For the Jurkat cells, the cell viability was determined by the XTT assay. Briefly, exponentially growing cells were plated in 96-well plates at a density of 5.5×10^3 cells/well, treated with different concentrations of compounds in triplicate and incubated for 72 h. After incubation with the compounds the XTT labeling mixture (100 μl) were added to each of the wells and after a 4 h incubation period the plates were read at 450 nm on an ELISA plate reader. […] Known for its cytotoxic activity, betulinic acid 2 was used as a positive control in this experimentation.
A general note: Tetrazolium assays rely on reduction of a dye to a coloured formazan, in cell work by metabolically active cells.

Experiment [2] relates to HepG2 (human hepatocellular carcinoma). The experiment is described as follows: Cytotoxic activity, MTT assay, HepG2. The method, then:
as §1, with “experimentation. […] All the IC50 results represent an average of a minimum of three experiments and were expressed as means±standard deviation (SD).” for “experimentation.”

For the next experiment, the system named is Jurkat (human leukemia). The experiment is described as follows: Cytotoxic activity, XTT assay, Jurkat. As for the experimental part:
as §1, with “experimentation. […] All the IC50 results represent an average of a minimum of three experiments and were expressed as means±standard deviation (SD).” for “experimentation.”

Each structure is given as a SMILES string.

For the compound `C=C(C)C1CCC2(COC(=O)n3cncn3)CCC3(C)C(CCC4C5(C)CCC(OC(=O)n6cncn6)C(C)(C)C5CCC43C)C12` (stereo not drawn) [Compound 19, Lup-20(29)-en-3β,28-di-yl-(1H-triazole-1-carboxylate)], the IC50 (in general, the concentration needed to halve the response being measured) in experiment [1] was above 30 µM. `C=C(C)[C@@H]1CC[C@]2(COC(C)=O)CC[C@]3(C)[C@H](CC[C@@H]4[C@@]5(C)CC[C@H](OC(=O)n6ccnc6C)C(C)(C)[C@@H]5CC[C@]43C)[C@@H]12` [Compound 26, 28-acetoxy-lup-20(29)-en-3β-yl-2′-methyl-1H-imidazole-1-carboxylate]: the IC50 (in experiment [2]; in the experiment with Jurkat (human leukemia); in experiment [1]) was above 30 µM throughout. As for `C=C(C)[C@@H]1CC[C@]2(COC(=O)n3cncn3)CC[C@]3(C)[C@H](CC[C@@H]4[C@@]5(C)CC[C@H](O)C(C)(C)[C@@H]5CC[C@]43C)[C@@H]12` [Compound 16, 3β-hydroxy-lup-20(29)-en-28-yl-1H-triazole-1-carboxylate], inhibition in experiment [1] was half-maximal at 15.2 ± 2.1 µM (IC50). `C=C(C)C1CCC2(C(=O)n3cncn3)CCC3(C)C(CCC4C5(C)CCC(OC(=O)n6cncn6)C(C)(C)C5CCC43C)C12` (stereo not drawn) [Compound 32, 28-(1H-triazole-1-yl)-28-oxo-lup-20(29)-en-3β-yl-1H-triazole-1-carboxylate]: in experiment [1], the IC50 was determined as 14.5 ± 3.2 µM. Same read-out and setting: the figure for `C=C(C)[C@@H]1CC[C@]2(COC(=O)n3cncn3)CC[C@]3(C)[C@H](CC[C@@H]4[C@@]5(C)CC[C@H](OC(C)=O)C(C)(C)[C@@H]5CC[C@]43C)[C@@H]12` [Compound 24, 3β-acetoxy-lup-20(29)-en-28-yl-1H-triazole-1-carboxylate] is 23.2 ± 2.1 µM; for `C=C(COC)C1CCC2(COC(=O)n3cncn3)CCC3(C)C(CCC4C5(C)CCC(OC(=O)n6cncn6)C(C)(C)C5CCC43C)C12` (stereo not drawn) [Compound 40, 30-methoxylup-20(29)-en-3β,28-di-yl-(1H-triazole-1-carboxylate)] it is above 30 µM. Take `C=C(C)[C@@H]1CC[C@]2(COC(=O)n3ccnc3)CC[C@]3(C)[C@H](CC[C@@H]4[C@@]5(C)CC[C@H](OC(C)=O)C(C)(C)[C@@H]5CC[C@]43C)[C@@H]12` [Compound 22, 3β-acetoxy-lup-20(29)-en-28-yl-1H-imidazole-1-carboxylate]: the IC50 (in experiment [2]; with Jurkat (human leukemia); in experiment [1]) was above 30 µM each time.

As to `C=C(COC)[C@@H]1CC[C@]2(COC(=O)n3cncn3)CC[C@]3(C)[C@H](CC[C@@H]4[C@@]5(C)CC[C@H](O)C(C)(C)[C@@H]5CC[C@]43C)[C@@H]12` [Compound 37, 3β-hydroxy-30-methoxylup-20(29)-en-28-yl-1H-triazole-1-carboxylate], the IC50 in experiment [1] came out at 13.8 ± 2.3 µM. On to `C=C(C)[C@@H]1CC[C@]2(COC(C)=O)CC[C@]3(C)[C@H](CC[C@@H]4[C@@]5(C)CC[C@H](OC(=O)n6ccnc6)C(C)(C)[C@@H]5CC[C@]43C)[C@@H]12` [Compound 25, 28-acetoxy-lup-20(29)-en-3β-yl-1H-imidazole-1-carboxylate], for which the IC50 (in experiment [2]; in the experiment with Jurkat (human leukemia); in experiment [1]) was above 30 µM throughout. Turning to `C=C(C)C1CCC2(COC(C)=O)CCC3(C)C(CCC4C5(C)CCC(OC(=O)n6cncn6)C(C)(C)C5CCC43C)C12` (stereo not drawn) [Compound 27, 28-acetoxy-lup-20(29)-en-3β-yl-1H-triazole-1-carboxylate], the IC50 in experiment [1] was above 30 µM. For the compound `C=C(COC)[C@@H]1CC[C@]2(COC(=O)n3ccnc3C)CC[C@]3(C)[C@H](CC[C@@H]4[C@@]5(C)CC[C@H](OC(=O)n6ccnc6C)C(C)(C)[C@@H]5CC[C@]43C)[C@@H]12` [Compound 39, 30-methoxylup-20(29)-en-3β,28-di-yl-(2′-methyl-1H-imidazole-1-carboxylate)], the IC50 is 28.2 ± 2.5 µM in experiment [2], above 30 µM in the experiment on Jurkat (human leukemia) and 13.4 ± 0.6 µM in experiment [1]. Turning to `C=C(C)[C@@H]1CC[C@]2(CO)CC[C@]3(C)[C@H](CC[C@@H]4[C@@]5(C)CC[C@H](OC(=O)n6cncn6)C(C)(C)[C@@H]5CC[C@]43C)[C@@H]12` [Compound 21, 28-hydroxy-lup-20(29)-en-3β-yl-1H-triazole-1-carboxylate], the IC50 in experiment [1] was determined as 11.3 ± 1.9 µM.
